Data published in patent US20130129675A1, “INTERFERON THERAPIES IN COMBINATION WITH BLOCKADE OF STAT3 ACTIVATION” (BOARD OF REGENTS, THE UNIVERSITY OF TEXAS SYSTEM, priority 2009, published 2013).

Assays:
[1] = tested on: p-STAT3 (Tyr705) in B16 cells; assay: p-STAT3 immunoblotting in B16 cells; type: cell-based, murine; settings: 4 hours, 5 and 10 μM (FIG. 3A)
Method: (§1) Immunoblotting analysis. Murine melanoma B16 cells and splenocytes were used for protein isolation and immunoblotting analysis as described below. B16 cells were seeded at a density of 2×10^6 cells/well in 6-well culture plates and incubated at 37° C., in an atmosphere containing 5% CO2, with the RPMI 1640 medium overnight. Afterward, B16 cells were cultured in the absence or presence of WP1193 (5 μM, 10 μM). After 3.5 hours, the B16 cells were further cultured in the absence or presence of 20 ng/ml of IFN-α for 30 minutes. For the splenocyte preparation, spleens from two 4- to 6-week-old female mice were harvested and disassociated into a single cell suspension. […] The supernatants were collected and quantified for protein content. […]
(§2) Autoradiography of the membranes was performed using Amersham ECL Western blotting detection reagents (Amersham Biosciences). The densities of the protein bands compared with the β-actin protein control were measured with the Image J program provided by the NIH.
(§3) In this experiment, B16 cells and splenocytes isolated from C57BL/6J mice and were incubated with either the medium, medium supplemented with titrated WP1193, medium supplemented with IFN-α, or medium supplemented with both IFN-α and WP1193. […] Semi-quantitative densitometry was used to determine the relative levels of p-STAT3 to STAT3 and β-actin.

[2] = tested on: p-STAT3 (Tyr705) in splenocytes; assay: p-STAT3 immunoblotting in splenocytes; type: cell-based, C57BL/6J mice; settings: 2 hours, 5 and 10 μM (FIG. 3B)
Method: as §1, §2, §3

[3] = tested on: STAT3 in HH, HuT78 and MJ CTCL lines; assay: STAT3 tyrosine 705 phosphorylation in CTCL lines; type: cell-based, human; settings: serum starved 18 hours, stimuli 30 minutes (FIG. 7)
Method: To determine whether IFN alpha and beta were able to selectively phosphorylate STAT3 in other cell types. Studies were conducted in a range of other biologically relevant cell types. In these experiments, cells were grown in media supplemented with 10% FBS, and then serum starved for 18 hours and exposed to various stimuli for 30 minutes.

[4] = tested on: STAT3 in HaCaT keratinocytes; assay: pSTAT3 level in HaCaT keratinocytes (MSD chemiluminescent detection); type: cell-based, human
Method: Prior to experiments, the DMEM medium was changed to KGM-SFM containing rEGF and bovine pituitary extract for 12 hours, and the cells then exposed to various stimuli for 30 minutes. Cell lysates were extracted in IP lysis buffer were diluted in MSD extraction buffer and 25 uL of the cell lysate containing 10 ug protein was used in the analysis via chemiluminescent detection (MSD Technology). To test for inhibition by WP1220 (WP), cells were pre-incubated with WP1220 prior to the addition of IFN α.

[5] = tested on: STAT3 and Jak2 phosphorylation in SUP-T1 lymphoma cell line; assay: Cytokine signalling in SUP-T1 lymphoma cell line; type: cell-based; settings: SUP-T1 lymphoma cell line (data not shown)
melanoma = settings: cited from earlier work
[6] = cited from earlier work

N#C/C(=C\c1cccc(Br)n1)C(=O)N[C@H](c1ccccc1)C1CC1 [WP1193, (S,E)-3-(6-bromopyridin-2-yl)-2-cyano-N-(cyclopropyl(phenyl)methyl)acrylamide]
phosphorylation of p-STAT3 [1]: inhibits the phosphorylation of p-STAT3 | phosphorylation of p-STAT3 [2]: inhibits the phosphorylation of p-STAT3

IFN-α
tyrosine phosphorylation of STAT3 (tyrosine 705) [3]: selectively stimulates tyrosine phosphorylation of STAT3 | STAT3 activation in keratinocytes [4]: potently induce STAT3 activation | Relative level of pSAT3 ([4]; HaCaT cells, stimuli for 30 minutes): +++++ (+++++=400-500 fold) | pSTAT3 stimulation (Table E8) ([4]; SFM + IFN α, no inhibitor): +++++ (+++++=10,000-6,000) | STAT3 and Jak2 phosphorylation [5]: potently induce STAT3 but not Jak2 phosphorylation | reduction in the relative relapse risk (melanoma; high-dose type I IFN-α, stage II and III melanoma, adjuvant trials): 25-33% | melanoma patients with an objective response (melanoma; human, in vivo): 15% | duration of sustained in vivo expression ([6]; after administration of plasmid): more than 30 days | serum level of IFN-α ([6]; single i.v. hydrodynamic injection of 3 μg pORF plasmid encoding murine IFN-α): 0.9 ng/mL
